US7507749B2, “Antitumor agents” (priority 2001, dated 2009)
Read-outs that look alike come from different tables or passages of the source.

Experiments:
[1] = tested on: pancreatic ductal adenocarcinoma-03; type: in vivo
Procedure: BDF1 female mice were obtained from N.C.I., CRL-Ral (D.O.B. was Feb. 26, 2001; D.O.A. was Mar. 10, 2001). The mice weighed an average of 22.5 gm. Mice were implanted SC with pancreatic ductal adenocarcinoma-03 passage 143. (D.O.T. was May 29, 2001; Td was 2.3 days).
The R-enantiomer of compound 22c was suspended in 3% ethanol, 1% POE-80, 0.25% sodium bicarbonate (by volume) to effect solution. dH2O was then added, and the pH adjusted to 7 with HCl. […] The R-enantiomer of compound 22b was suspended in 3% ethanol, 1% POE-80, 0.5% sodium-bicarbonate (by volume) to effect solution. Then, dH2O was added, and the pH adjusted to 7.5 with HCl. […] Adriamycin (source ADRIA; lot 2033BC) was suspended in dH2O to effect solution, and the pH was 6.0.
Treatment began six days following implant, at which time the tumors were palpable size (126 mg median). The duration of treatment was prolonged (18 days) in order to obtain a clear separation in efficacy between the compounds.

colon carcinoma 26 = conditions: Cg 3; IV 50 mg/kg/inj days 6,8,10,13,15; total 250 mg/kg
Procedure: In this trial the R-enantiomers of XK-469, compound 22c, and compound 22b were compared against advanced staged colon carcinoma 26 in female Balb/c mice. […] Cage #2 was 22b at 400 mg/kg and Cage #4 was 22c at 400 mg/kg.
The XK469-R, 22b, and 22c compound doses were all prepared the same, using 3% ethanol, 1% POE-80, and 0.5% sodium bicarbonate. The injection volume was 0.2 mu/mouse IV. […] The mice were Balb/c female mice: DOB Feb. 12, 2001; DOA Mar. 27, 2001; DOT Sep. 8, 2001, with an average body weight of 24.7 grams at the start of Rx administration. The tumor was Colon Carcinoma-26 passage 141; date of implant Sep. 8, 2001, and implanted at 30 to 60 mg fragments bilaterally SC. All tumors were 63 to 171 mg on day 6, the day of first Rx.

[2] = tested on: mammary adenocarcinoma-16/C; assay: Test F: R-enantiomers of 22b and 22c against early staged mammary adenocarcinoma-16/C; type: in vivo, C3H female mice
Procedure: C3H female mice were obtained from N.C.I. (D.O.B. was […]; D.O.A. was Jan. 27, 2001). The mice weighed an average of 19.2 gm. Mice were implanted SC with mammary adenocarcinoma-16/C passage-170, a fast growing, highly invasive, highly metastatic tumor (D.O.T. was Mar. 8, 2001; Td was 1.2 days).
The R-enantiomers of both Compound 22c and Compound 22b were each suspended in 3% ethanol, 1% POE-80, 0.5% sodium bicarbonate (by volume) to effect solution, P.B.S. was then added and the pH adjusted to 7 with HCl. Adriamycin (ADRIA; lot number 20338c) was suspended in dH2O to effect solution and the pH was adjusted to 6.0. Mice were administered 0.2 ml per IV injection.

[3] = Cg 2, IV 80 mg/kg/inj days 6,9,12,15,18,21,24, total 560 mg/kg
[4] = Cg 3, IV 50 mg/kg/inj days 6,9,12,15,18,21,24, total 350 mg/kg
[5] = Cg 4, IV 31 mg/kg/inj days 6,9,12,15,18,21,24, total 217 mg/kg
[6] = Cg 5, total 592.8 mg/kg, text: SC 31.2 mg/kg/inj qd 6-24 (table prints days 6,9..24 IV)
[7] = Cg 12 in table (Cage 6 in text), total 370.5 mg/kg, text: SC 19.5 mg/kg/inj qd 6-24 (table prints IV)
[8] = Cage 5, IV 50 mg/kg/inj qd 1-5, total 250 mg/kg
[9] = Cage 5, IV 50 mg/kg/inj qd 1-5, total 250 mg/kg, listed as R-enantiomer of compound 22b
[10] = Cage 6, IV 50 mg/kg/inj days 1,3,5,7, total 200 mg/kg
[11] = Cage 7, IV 30 mg/kg/inj days 1,3,5,7, total 120 mg/kg

Structure (SMILES): C[C@@H](Oc1ccc(Oc2ccc3ccc(Cl)cc3n2)cc1)C(=O)O [Compound R-22b, (R) 2-[4-(7-chloroquinolin-2-yloxy)phenoxy]propanoic acid]
- Behavior post injection ([1]; Cage 2, IV 80 mg/kg/inj, lasted only a few minutes): agitated post IV injection
- Neuromuscular toxicity ([1]; Cage 2, IV 80 mg/kg/inj, total 560 mg/kg): no neuromuscular toxicity
- Behavior post injection ([1]; Cage 5, SC 31.2 mg/kg/inj qd 6-24): not agitated post SC injection
- Behavior post injection ([1]; Cage 6 in text, SC 19.5 mg/kg/inj qd 6-24): not agitated post SC injection
- % Body Wt change between day 6 and day 24 [1, 3]: +3.7%
- % T/C mass [1, 3]: 14.1%
- Activity Rating [1, 3]: +++ (2.0-2.8)
- CR's [1, 3]: 0/7
- Drug Deaths [1, 3]: 0/7
- Growth Delay [1, 3]: 17.5 days
- Log Kill [1, 3]: 2.3
- Median Tumor Mass on Day 24 (Range) [1, 3]: 320 mg
- Median time for tumors to 1,000 mg (range) [1, 3]: 34 days
- PR's [1, 3]: 2/7
- Tumor Free day-157 [1, 3]: 0/7
- % Body Wt change between day 6 and day 24 [1, 4]: +8.8%
- % T/C mass [1, 4]: 29.1%
- Activity Rating [1, 4]: ++ (1.3-1.9)
- CR's [1, 4]: 1/6
- Drug Deaths [1, 4]: 0/6
- Growth Delay [1, 4]: 11.5 days
- Log Kill [1, 4]: 1.5
- Median Tumor Mass on Day 24 (Range) [1, 4]: 658 mg
- Median time for tumors to 1,000 mg (range) [1, 4]: 28 days
- PR's [1, 4]: 1/6
- Tumor Free day-157 [1, 4]: 0/6
- % Body Wt change between day 6 and day 24 [1, 5]: +10.4%
- % T/C mass [1, 5]: 76.2%
- Activity Rating [1, 5]: − (<0.7)
- CR's [1, 5]: 0/6
- Drug Deaths [1, 5]: 0/6
- Growth Delay [1, 5]: 3.5 days
- Log Kill [1, 5]: 0.5
- Median Tumor Mass on Day 24 (Range) [1, 5]: 1722 mg
- Median time for tumors to 1,000 mg (range) [1, 5]: 20 days
- PR's [1, 5]: 0/6
- Tumor Free day-157 [1, 5]: 0/6
- % Body Wt change between day 6 and day 24 [1, 6]: +3.5%
- % T/C mass [1, 6]: 48.9%
- Activity Rating [1, 6]: + (0.7-1.2)
- CR's [1, 6]: 1/5
- Drug Deaths [1, 6]: 0/5
- Growth Delay [1, 6]: 6.5 days
- Log Kill [1, 6]: 0.9
- Median Tumor Mass on Day 24 (Range) [1, 6]: 1105 mg
- Median time for tumors to 1,000 mg (range) [1, 6]: 23 days
- PR's [1, 6]: 1/5
- Tumor Free day-157 [1, 6]: 1/5
- % Body Wt change between day 6 and day 24 [1, 7]: +10.3%
- % T/C mass [1, 7]: 82.7%
- Activity Rating [1, 7]: − (<0.7)
- CR's [1, 7]: 0/5
- Drug Deaths [1, 7]: 0/5
- Growth Delay [1, 7]: 3.0 days
- Log Kill [1, 7]: 0.4
- Median Tumor Mass on Day 24 (Range) [1, 7]: 1868 mg
- Median time for tumors to 1,000 mg (range) [1, 7]: 19.5 days
- PR's [1, 7]: 0/5
- Tumor Free day-157 [1, 7]: 0/5
- % Body Wt change at nadir (colon carcinoma 26): −6.2%
- Activity Rating (colon carcinoma 26): ++ (1.3-1.9)
- CR's (colon carcinoma 26): 1/6
- Drug Deaths (colon carcinoma 26): 0/6
- Growth Delay (colon carcinoma 26): 8 days
- Log Kill (colon carcinoma 26): 1.4
- Median time for tumors to 700 mg (range) (colon carcinoma 26): 21 (15.5-48) days
- PR's (colon carcinoma 26): 1/6
- Tumor Free day-156 (colon carcinoma 26): 0/6
- day of nadir (colon carcinoma 26): 16 days
- % T/C mass [2, 8]: 0%
- Activity Rating [2, 8]: +++ (2.0-2.8)
- Drug Deaths [2, 8]: 0/5
- Growth Delay [2, 8]: 7.0 days
- Log Kill [2, 8]: 2.1
- Median Tumor Mass on Day 10 (Range) [2, 8]: 0 mg
- Median time for tumors to 1000 mg (range) [2, 8]: 16.5 (13.5-18) days
- Tumor Free day-155 [2, 8]: 0/5
- % T/C mass [2, 9]: 0%
- Drug Deaths [2, 9]: no deaths
- % T/C mass [2, 10]: 5%
- Activity Rating [2, 10]: ++ (1.3-1.9)
- Drug Deaths [2, 10]: 0/5
- Growth Delay [2, 10]: 5.8 days
- Log Kill [2, 10]: 1.7
- Median Tumor Mass on Day 10 (Range) [2, 10]: 75 mg
- Median time for tumors to 1000 mg (range) [2, 10]: 15.3 (14-17) days
- Tumor Free day-155 [2, 10]: 0/5
- % T/C mass ([2]; Cage 6, IV 50 mg/kg/inj days 1,3,5,7, total 200 mg/kg, listed as R-enantiomer of compound 22b): 5%
- % T/C mass [2, 11]: 32%
- Activity Rating [2, 11]: + (0.7-1.2)
- Drug Deaths [2, 11]: 0/5
- Growth Delay [2, 11]: 2.5 days
- Log Kill [2, 11]: 0.8
- Median Tumor Mass on Day 10 (Range) [2, 11]: 486 mg
- Median time for tumors to 1000 mg (range) [2, 11]: 12 (11.5-14) days
- Tumor Free day-155 [2, 11]: 0/5
- % T/C mass ([2]; Cage 7, IV 30 mg/kg/inj days 1,3,5,7, total 120 mg/kg, listed as R-enantiomer of compound 22b): 32%
- Neuromuscular toxicity ([2]; mouse, in vivo, iv): completely devoid of neuromuscular toxicity
